Laboratory results from patent publication US20090191636A1, “Method of Producing Transgenic Graminaceous Cells and Plants” (priority 2006, published 2009).

Key:
[1] = system: wheat embryos derived from mature dried grain of the cultivar Bobwhite; assay: Effect of D-amino acids on regeneration of wheat from embryos of mature dried grain (Bobwhite); assay type: cell-based, Triticum aestivum; conditions: for proportion (%) of explants regenerating after 3 weeks, Average / proportion (%) of explants regenerating after 3 weeks, Experiment number 1 / proportion (%) of explants regenerating after 3 weeks, Experiment number 2 / proportion (%) of explants regenerating after 3 weeks, Experiment number 3: n = 20
Procedure: (§1) A range of concentrations of the D-amino acids D-serine and D-alanine were tested for effects on wheat regeneration and germination from embryos derived from mature dried grain of the cultivar Bobwhite.

[2] = system: wheat mature dried grain of the cultivar Bobwhite; assay: Effect of D-amino acids on germination of wheat mature dried grain (Bobwhite); assay type: in vivo, Triticum aestivum; conditions: n = 15
Procedure: as §1

[3] = system: wheat embryos derived from mature dried grain of the cultivar Ventura; assay: Effect of D-amino acids on regeneration of wheat from embryos of mature dried grain (Ventura); assay type: cell-based; conditions: n = 20
[4] = system: wheat mature dried grain of the cultivar Ventura; assay: Effect of D-amino acids on germination of wheat mature dried grain (Ventura); assay type: in vivo; conditions: n = 15
Procedure: [Worded in the source for another variant; this variant is reported under the same test.] as §1

SMILES: C[C@@H](N)C(=O)O [D-alanine]
- proportion (%) of explants regenerating after 3 weeks, Average ([1]; 0.5 mM): 20%
- proportion (%) of explants regenerating after 3 weeks, Experiment number 1 ([1]; 0.5 mM): 30%
- proportion (%) of explants regenerating after 3 weeks, Experiment number 2 ([1]; 0.5 mM): 30%
- proportion (%) of explants regenerating after 3 weeks, Experiment number 3 ([1]; 0.5 mM): 0%
- proportion (%) of explants regenerating after 3 weeks, Average ([1]; 1 mM): 20%
- proportion (%) of explants regenerating after 3 weeks, Experiment number 1 ([1]; 1 mM): 35%
- proportion (%) of explants regenerating after 3 weeks, Experiment number 2 ([1]; 1 mM): 21%
- proportion (%) of explants regenerating after 3 weeks, Experiment number 3 ([1]; 1 mM): 5%
- proportion (%) of explants regenerating after 3 weeks, Average ([1]; 3 mM): 15%
- proportion (%) of explants regenerating after 3 weeks, Experiment number 1 ([1]; 3 mM): 20%
- proportion (%) of explants regenerating after 3 weeks, Experiment number 2 ([1]; 3 mM): 25%
- proportion (%) of explants regenerating after 3 weeks, Experiment number 3 ([1]; 3 mM): 0%
- proportion (%) of explants regenerating after 3 weeks, Average ([1]; 5 mM): 3%
- proportion (%) of explants regenerating after 3 weeks, Experiment number 1 ([1]; 5 mM): 5%
- proportion (%) of explants regenerating after 3 weeks, Experiment number 2 ([1]; 5 mM): 5%
- proportion (%) of explants regenerating after 3 weeks, Experiment number 3 ([1]; 5 mM): 0%
- proportion (%) of explants regenerating after 3 weeks, Average ([1]; 10 mM): 0%
- proportion (%) of explants regenerating after 3 weeks, Experiment number 1 ([1]; 10 mM): 0%
- proportion (%) of explants regenerating after 3 weeks, Experiment number 2 ([1]; 10 mM): 0%
- proportion (%) of explants regenerating after 3 weeks, Experiment number 3 ([1]; 10 mM): 0%
- levels that reduced the regeneration and germination of wheat plants ([1]; regeneration and germination (Tables 4 and 5)): > 5 mM
- proportion (%) of explants germinated after 1 week, Average ([2]; 0.5 mM): 77%
- proportion (%) of explants germinated after 1 week, Experiment Number 1 ([2]; 0.5 mM): 55%
- proportion (%) of explants germinated after 1 week, Experiment Number 2 ([2]; 0.5 mM): 75%
- proportion (%) of explants germinated after 1 week, Experiment Number 3 ([2]; 0.5 mM): 100%
- proportion (%) of explants germinated after 1 week, Average ([2]; 1 mM): 77%
- proportion (%) of explants germinated after 1 week, Experiment Number 1 ([2]; 1 mM): 70%
- proportion (%) of explants germinated after 1 week, Experiment Number 2 ([2]; 1 mM): 80%
- proportion (%) of explants germinated after 1 week, Experiment Number 3 ([2]; 1 mM): 80%
- proportion (%) of explants germinated after 1 week, Average ([2]; 3 mM): 73%
- proportion (%) of explants germinated after 1 week, Experiment Number 1 ([2]; 3 mM): 70%
- proportion (%) of explants germinated after 1 week, Experiment Number 2 ([2]; 3 mM): 70%
- proportion (%) of explants germinated after 1 week, Experiment Number 3 ([2]; 3 mM): 80%
- proportion (%) of explants germinated after 1 week, Average ([2]; 5 mM): 62%
- proportion (%) of explants germinated after 1 week, Experiment Number 1 ([2]; 5 mM): 50%
- proportion (%) of explants germinated after 1 week, Experiment Number 2 ([2]; 5 mM): 85%
- proportion (%) of explants germinated after 1 week, Experiment Number 3 ([2]; 5 mM): 50%
- proportion (%) of explants germinated after 1 week, Average ([2]; 10 mM): 28%
- proportion (%) of explants germinated after 1 week, Experiment Number 1 ([2]; 10 mM): 10%
- proportion (%) of explants germinated after 1 week, Experiment Number 2 ([2]; 10 mM): 35%
- proportion (%) of explants germinated after 1 week, Experiment Number 3 ([2]; 10 mM): 40%
- proportion (%) of explants regenerating after 3 weeks, Average ([3]; 0.5 mM): 8%
- proportion (%) of explants regenerating after 3 weeks, Experiment number 1 ([3]; 0.5 mM): 10%
- proportion (%) of explants regenerating after 3 weeks, Experiment number 2 ([3]; 0.5 mM): 10%
- proportion (%) of explants regenerating after 3 weeks, Experiment number 3 ([3]; 0.5 mM): 5%
- proportion (%) of explants regenerating after 3 weeks, Average ([3]; 1 mM): 5%
- proportion (%) of explants regenerating after 3 weeks, Experiment number 1 ([3]; 1 mM): 0%
- proportion (%) of explants regenerating after 3 weeks, Experiment number 2 ([3]; 1 mM): 10%
- proportion (%) of explants regenerating after 3 weeks, Experiment number 3 ([3]; 1 mM): 5%
- proportion (%) of explants regenerating after 3 weeks, Average ([3]; 3 mM): 7%
- proportion (%) of explants regenerating after 3 weeks, Experiment number 1 ([3]; 3 mM): 10%
- proportion (%) of explants regenerating after 3 weeks, Experiment number 2 ([3]; 3 mM): 10%
- proportion (%) of explants regenerating after 3 weeks, Experiment number 3 ([3]; 3 mM): 0%
- proportion (%) of explants regenerating after 3 weeks, Average ([3]; 5 mM): 3%
- proportion (%) of explants regenerating after 3 weeks, Experiment number 1 ([3]; 5 mM): 5%
- proportion (%) of explants regenerating after 3 weeks, Experiment number 2 ([3]; 5 mM): 5%
- proportion (%) of explants regenerating after 3 weeks, Experiment number 3 ([3]; 5 mM): 0%
- proportion (%) of explants regenerating after 3 weeks, Average ([3]; 10 mM): 0%
- proportion (%) of explants regenerating after 3 weeks, Experiment number 1 ([3]; 10 mM): 0%
- proportion (%) of explants regenerating after 3 weeks, Experiment number 2 ([3]; 10 mM): 0%
- proportion (%) of explants regenerating after 3 weeks, Experiment number 3 ([3]; 10 mM): 0%
- proportion (%) of explants regenerating after 3 weeks, Average ([3]; 20 mM): 0%
- proportion (%) of explants regenerating after 3 weeks, Experiment number 1 ([3]; 20 mM): 0%
- proportion (%) of explants regenerating after 3 weeks, Experiment number 2 ([3]; 20 mM): 0%
- proportion (%) of explants regenerating after 3 weeks, Experiment number 3 ([3]; 20 mM): 0%
- germination: proportion (%) of explants regenerating after 1 week, Average ([4]; 0.5 mM): 73%
- germination: proportion (%) of explants regenerating after 1 week, Experiment number 1 ([4]; 0.5 mM): 65%
- germination: proportion (%) of explants regenerating after 1 week, Experiment number 2 ([4]; 0.5 mM): 65%
- germination: proportion (%) of explants regenerating after 1 week, Experiment number 3 ([4]; 0.5 mM): 90%
- germination: proportion (%) of explants regenerating after 1 week, Average ([4]; 1 mM): 75%
- germination: proportion (%) of explants regenerating after 1 week, Experiment number 1 ([4]; 1 mM): 75%
- germination: proportion (%) of explants regenerating after 1 week, Experiment number 2 ([4]; 1 mM): 75%
- germination: proportion (%) of explants regenerating after 1 week, Experiment number 3 ([4]; 1 mM): 75%
- germination: proportion (%) of explants regenerating after 1 week, Average ([4]; 3 mM): 75%
- germination: proportion (%) of explants regenerating after 1 week, Experiment number 1 ([4]; 3 mM): 80%
- germination: proportion (%) of explants regenerating after 1 week, Experiment number 2 ([4]; 3 mM): 65%
- germination: proportion (%) of explants regenerating after 1 week, Experiment number 3 ([4]; 3 mM): 80%
- germination: proportion (%) of explants regenerating after 1 week, Average ([4]; 5 mM): 67%
- germination: proportion (%) of explants regenerating after 1 week, Experiment number 1 ([4]; 5 mM): 70%
- germination: proportion (%) of explants regenerating after 1 week, Experiment number 2 ([4]; 5 mM): 55%
- germination: proportion (%) of explants regenerating after 1 week, Experiment number 3 ([4]; 5 mM): 75%
- germination: proportion (%) of explants regenerating after 1 week, Average ([4]; 10 mM): 47%
- germination: proportion (%) of explants regenerating after 1 week, Experiment number 1 ([4]; 10 mM): 65%
- germination: proportion (%) of explants regenerating after 1 week, Experiment number 2 ([4]; 10 mM): 30%
- germination: proportion (%) of explants regenerating after 1 week, Experiment number 3 ([4]; 10 mM): 45%
- germination: proportion (%) of explants regenerating after 1 week, Average ([4]; 20 mM): 5%
- germination: proportion (%) of explants regenerating after 1 week, Experiment number 1 ([4]; 20 mM): 5%
- germination: proportion (%) of explants regenerating after 1 week, Experiment number 2 ([4]; 20 mM): 25%
- germination: proportion (%) of explants regenerating after 1 week, Experiment number 3 ([4]; 20 mM): 40%
